Assay results reported in patent publication US5922558A, “Methods and compositions for generating chemiluminescence with a peroxidase” (Lumigen, Inc., priority 1997, dated 1999).
“Also recorded” adds a separate entry of the source. One block for each compound: values may come before it.

What was measured:
[1] = target: T1, sheep anti-mouse-HRP conjugate (Armoracia rusticana, UniProt P00433); test: Western blot assay of β-galactosidase via an HRP-labeled antibody with chemiluminescent reagent, X-ray film; conditions: for Western blot result compared with reagent containing compound 5: both PVDF and nitrocellulose membranes
T1 construct: purchased Boehringer-Mannheim
T1 sequence (P00433 31-338 limits assumed): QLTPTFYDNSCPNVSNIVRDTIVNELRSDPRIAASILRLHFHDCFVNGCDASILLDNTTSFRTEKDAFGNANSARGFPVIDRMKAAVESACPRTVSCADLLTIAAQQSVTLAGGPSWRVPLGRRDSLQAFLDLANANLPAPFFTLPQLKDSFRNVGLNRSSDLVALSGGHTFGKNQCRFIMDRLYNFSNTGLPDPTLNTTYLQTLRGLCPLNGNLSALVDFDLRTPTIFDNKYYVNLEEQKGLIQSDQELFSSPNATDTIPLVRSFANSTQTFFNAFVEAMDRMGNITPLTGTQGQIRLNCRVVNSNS
Excerpt: Compositions of the present invention were used to detect and quantify a protein, β-galactosidase (β-gal) in a Western blot with an HRP-labeled antibody on a polyvinylidene difluoride (PVDF) membrane. Dilutions of β-gal containing 5000, 1000, 180, 30 and 5 pg, respectively, of protein were electrophoresed and transferred to PVDF membranes (Millipore, Bedford, Mass.). The membranes were blocked with 1% non-fat milk in T-TBS (0.05% Tween 20 in TBS; TBS is 50 mmol/L Tris-HCl, pH 7.4, 0.15 mol/L NaCl) and then reacted sequentially with a 1:1500 dilution of mouse anti-β-gal (Boehringer-Mannheim, Indianapolis) and 1:600 dilution of sheep anti-mouse-HRP conjugate (Boehringer-Mannheim). The membranes were washed in T-TBS and soaked for 3 min with a reagent comprising 0.055M tris buffer, pH 8.6 containing 0.66 mM acridan phosphate 5, 0.05 mM p-phenylphenol, 0.25 mM urea peroxide, 0.5 mM EDTA, 0.0125% Tween 20. The membranes were placed between transparent plastic sheets and exposed to X-ray film. […] The light produced led to intense emission which could be imaged for several hours.
A Western blot assay according to the procedure in the previous example was performed using nitrocellulose membrane (Schleicher & Schuell, Keene, N.H.) as the solid phase. β-Galstandards in the range of 5000-5 pg were used. The detection reagent of the previous example permitted detection to be performed over several hours.

[2] = target: T2, horseradish peroxidase (HRP) (Armoracia rusticana, UniProt P00433); test: Chemiluminescent detection of HRP in solution with reagent composition (tris buffer, urea peroxide, p-phenylphenol, EDTA, Tween 20); format: biochemical
T2 sequence (P00433 31-353): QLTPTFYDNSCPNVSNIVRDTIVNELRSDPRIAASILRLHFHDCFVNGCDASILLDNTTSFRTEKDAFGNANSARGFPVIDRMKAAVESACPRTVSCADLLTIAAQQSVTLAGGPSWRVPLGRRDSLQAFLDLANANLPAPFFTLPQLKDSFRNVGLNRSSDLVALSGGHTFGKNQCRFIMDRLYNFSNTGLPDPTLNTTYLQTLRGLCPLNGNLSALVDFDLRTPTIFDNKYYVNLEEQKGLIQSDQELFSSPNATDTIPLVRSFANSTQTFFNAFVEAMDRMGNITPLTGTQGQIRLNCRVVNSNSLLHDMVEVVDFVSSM
Experimental: (§1) Reagent compositions comprising 0.055M tris buffer, pH 8.6, 0.25 mM urea peroxide, 0.05 mM p-phenylphe nol, 0.5 mM EDTA, 0.0125% Tween 20 and 3.3×10^-4 M acridan 5 were tested for production of chemiluminescence by reacting triplicate 100 μL aliquots with 10 μL of solutions of HRP in water containing between 1.4×10^-15 and 1.4×10^-19 moles of enzyme. […] The relation between chemiluminescence intensity at 15 min and amount of enzyme is depicted in FIG. 1.
as §1, with “mM p-phenylphenol,” for “mM p-phenylphe nol,”, “acridan 13” for “acridan 5”, “intensity” for “intensity at 15 min”, “FIG. 2.” for “FIG. 1.”
In the manner of Example 21, compositions containing each of compounds 1-4 and 6-12 and 14 were reacted with HRP at 25° C. Each produced easily measurable chemiluminescence discernable above the background measured in the absence of HRP.
The chemiluminescence profile of acridan phosphate 5 reacted with HRP is depicted in FIG. 3. Reaction of 100 μL of the reagent composition of Example 20 with 1.4×10^-15 mol of HRP at 25° C. caused an instant rise in light emission which achieved maximum intensity in ca. 5 min.
(§2) Reagent compositions comprising 0.01M tris buffer, pH 8.0, 0.5 mM urea peroxide, 0.1 mM p-phenylphenol, 1 mM EDTA, 0.025% Tween 20 and 5×10^-5 M acridan 37 were tested for production of chemiluminescence by reacting triplicate 100 μL aliquots with 10 μL of HRP in the range 1.4×10^-14 to 1.4×10^-19 moles. […] The relation between chemiluminescence intensity and amount of enzyme is depicted in FIG. 4.
A reagent composition (40 μL) comprising 0.01M tris buffer, pH 8.0, 0.5 mM urea peroxide, 0.1 mM p-phenylphenol, 1 mM EDTA, 0.025% Tween 20 and 5×10^-5 M acridan 38 was reacted with 1 μL of a solution containing 1.4×10^-15 moles of HRP. […] The chemiluminescence time profile is depicted in FIG. 5.
as §2, with “39” for “37”, “1.4×10^-15” for “1.4×10^-14”, “1.4×10^-20” for “1.4×10^-19”, “6.” for “4.”
A reagent composition (100 μL) comprising 0.01M tris buffer, pH 8.0, 0.5 mM urea peroxide, 0.1 mM p-phenylphenol, 1 mM EDTA, 0.025% Tween 20 and 5×10^-5 M acridan 40 was reacted with 10 μL of a solution containing 1.4×10^-15 moles of HRP.
A reagent composition (100 μL) comprising 0.01M tris buffer, pH 8.0, 0.5 mM urea peroxide, 0.1 mM p-phenylphenol, 1 mM EDTA, 0.025% Tween 20 and 5×10^-5 M acridan 50 was reacted with 2.5 μL of a solution containing 3.5×10^-16 moles of HRP. […] The chemiluminescence time profile is depicted in FIG. 7.
Reagent compositions comprising 0.055M tris buffer, pH 8.6, 0.25 mM urea peroxide, 0.05 mM p-phenylphenol, 0.5 mM EDTA, 0.0125% Tween 20, 1 mM CTAB and 6.6×10^-4 M acridan 43 were tested for production of chemiluminescence by reacting triplicate 100 μL aliquots with 10 μL of solutions of HRP containing between 1.4×10^-15 and 1.4×10^-19 moles of HRP. The relation between chemiluminescence intensity at 15 min and amount of enzyme is depicted in FIG. 8.
Reagent compositions comprising 0.055M tris buffer, pH 8.6, 0.25 mM urea peroxide, 0.05 mM p-phenylphenol, 0.5 mM EDTA, 0.0125% Tween 20, 1 mM CTAB and 6.6×10^-4 M compound 46 alone or with 50 μM DBA were tested for production of chemiluminescence by reacting a 100 μL aliquot with 3.5×10^-15 moles of HRP.

peroxidase = target: T3, peroxidase (Armoracia rusticana, UniProt P00433); test: Reaction with a peroxidase and a peroxide to produce chemiluminescence (general statements); format: biochemical; conditions: with versus without CTAB
T3 construct: isoenzyme C dominant
T3 sequence (P00433 31-338): T1 sequence (P00433 31-338 limits assumed)
Experimental: Another aspect of the present invention is the use of compounds of any of formulas I-VI in a method to produce chemiluminescence by reaction with a peroxidase. Reaction of a compound of formula I-VI with a peroxidase and a peroxide in an aqueous buffer solution produces easily detected chemiluminescence. Light intensity reaches a maximum level within minutes at room temperature when the reaction is conducted at alkaline pH. The reaction is conducted optionally in the presence of an enhancer. [drawing 15] Cationic surfactants, including quaternary ammonium salt compounds such as CTAB, are advantageous for use in increasing the level of chemiluminescence emitted when certain compounds of the present invention are reacted with a peroxidase and a peroxide.

[3] = 0.055M tris pH 8.6, 0.25 mM urea peroxide, 0.05 mM p-phenylphenol, 3.3×10^-4 M compound, HRP 1.4×10^-15 to 1.4×10^-19 moles
[4] = 0.01M tris pH 8.0, 0.5 mM urea peroxide, 0.1 mM p-phenylphenol, 5×10^-5 M acridan

Western blot result compared with reagent containing compound 5 [1]: qualitatively the same result
SMILES: CN1c2ccccc2C(=C(Oc2ccccc2)OP(=O)(O)O)c2ccccc21 [Compound 1]

production of chemiluminescence on reaction with HRP [2, 3]: Light production ensued upon mixing | time to maximum chemiluminescence intensity ([2]; 100 μL reagent of Example 20 (0.055M tris pH 8.6, 3.3×10^-4 M acridan), 1.4×10^-15 mol HRP, 25° C.): ca. 5 min | duration over which emission could be imaged, Western blot, PVDF membrane ([1]; 0.66 mM compound, tris pH 8.6): several hours
SMILES: CN1c2ccccc2C(=C(OP(=O)(O)O)Sc2ccccc2)c2ccccc21 [Compound 5]
detection of β-gal in Western blot, PVDF membrane ([1]; β-gal 5000, 1000, 180, 30 and 5 pg, 0.66 mM compound, 30 s exposure after 14 min): detection of β-gal; also recorded: detected

SMILES: CN1c2ccccc2C(=C(OP(=O)(O)O)Sc2ccc(Cl)cc2)c2ccccc21 [Compound 12]
Western blot result compared with reagent containing compound 5 [1]: qualitatively the same result

production of chemiluminescence on reaction with HRP [2, 3]: Light production ensued upon mixing | Western blot result compared with reagent containing compound 5 [1]: qualitatively the same result
SMILES: CN1c2ccccc2C(=C(OP(=O)(O)O)Sc2ccc3ccccc3c2)c2ccccc21 [Compound 13]

SMILES: CCOP(=O)(OCC)OC(Oc1ccccc1)=C1c2ccccc2N(C)c2ccccc21 [Compound 37]
production of chemiluminescence on reaction with HRP [2, 4]: Light production ensued upon mixing

SMILES: CCOP(=O)(OCC)OC(Sc1ccccc1)=C1c2ccccc2N(C)c2ccccc21 [Compound 38]
production of chemiluminescence on reaction with HRP [2, 4]: Light production ensued upon mixing | time to maximum chemiluminescence intensity ([2]; 40 μL reagent, 0.01M tris pH 8.0, 5×10^-5 M acridan, 1.4×10^-15 moles HRP, 25° C.): 1 min

production of chemiluminescence on reaction with HRP [2, 4]: Light production ensued upon mixing | time to maximum chemiluminescence intensity ([2]; 100 μL reagent, 0.01M tris pH 8.0, 5×10^-5 M acridan, HRP 1.4×10^-15 to 1.4×10^-20 moles): 30 min
SMILES: CC(=O)OC(Oc1ccccc1)=C1c2ccccc2N(C)c2ccccc21 [Compound 39]

production of chemiluminescence on reaction with HRP [2, 4]: Light production ensued upon mixing | time to maximum chemiluminescence intensity ([2]; 100 μL reagent, 0.01M tris pH 8.0, 5×10^-5 M acridan, 1.4×10^-15 moles HRP): 7 min
SMILES: CC(=O)OC(Sc1ccccc1)=C1c2ccccc2N(C)c2ccccc21 [Compound 40]

change of light intensity when CTAB was included in the reaction mixture (peroxidase): increased more than ten-fold
SMILES: CC(=C(OP(=O)(O)O)Sc1ccccc1)c1ccc2cc(O)ccc2c1 [Compound 43]

change of light intensity when CTAB was included in the reaction mixture (peroxidase): increased more than ten-fold | effect of triplet energy acceptor DBA on chemiluminescence ([2]; 0.055M tris pH 8.6, 1 mM CTAB, 6.6×10^-4 M compound alone or with 50 μM DBA, 3.5×10^-15 moles HRP): enhancement of chemiluminescence
SMILES: O=P(O)(O)OC(Sc1ccccc1)=C(c1ccccc1)c1ccccc1 [Compound 46]

production of chemiluminescence on reaction with HRP [2, 4]: Light production ensued upon mixing | time to maximum chemiluminescence intensity ([2]; 100 μL reagent, 0.01M tris pH 8.0, 5×10^-5 M acridan, 3.5×10^-16 moles HRP, 25° C.): 7 min
SMILES: COC(Sc1ccccc1)=C1c2ccccc2N(C)c2ccccc21 [Compound 50]
